These results are taken from US20030004123A1, “Targeted gene transfer using G protein coupled receptors” (priority 1997, published 2003).

The test system of series [1] is WD human airway epithelial cells. As to the kind of experiment: Cl- secretory response of WD human airway epithelial cultures to lumenal agonists. Conditions: agonist at 10^−4M, FIG. 3. In kind it is cell-based. From the text: Epithelial cells are derived from CF and non-CF nasal and bronchial airway epithelia using procedures similar to those described by Gray et al. 1996. Am. J Respir. Cell Mol. Biol. 14, 104-112. Resected nasal turbinates or portions of mainstem/lobar bronchi representing excess donor tissue are obtained at the time of lung transplantation under the auspices of the University of North Carolina at Chapel Hill Institutional Committee on the Protection of the Rights of Human Subjects. Epithelial cells are removed from the specimens by protease XIV digestion as described (Wu, R., et al., 1985. Am. Rev. Respir. Dis. 132, 311-320), but omitting the filtration step. 1-2×10^6 cells are plated per 100 mm tissue culture dish in modified LHC9 medium. Lechner, J. F. and Laveck, M. A. 1985. J. Tiss. Cult. Meth. 9, 43-48. The modifications include increasing the EGF concentration to 25 ng/ml, adjusting the retinoic acid concentration to 5×10^−8 M, and supplementation with 0.5 mg/ml bovine serum albumin and 0.8% bovine pituitary extract. At approximately 75% confluence, the cells are harvested by trypsinization and passage 1 cells are plated at a density of 2.5×10^5 cells on Transwell-Col inserts (Coming-Costar, 24 mm diameter, 0.4 μm pore size), in modified medium. The medium is similar to the supplemented LHC9 except that a 50:50 mixture of LHC Basal (Biofluids) and DMEM-H is used as the base, amphotericin and gentamycin are omitted and the EGF concentration is reduced to 0.5 ng/ml. After the cells grow to confluence (4-6 days) the apical surface of the cultures are given an air-liquid interface for another 25-30 days until use.
Investigations were carried out to identify which 7-TM receptors, if any, are localized in the apical membrane of WD human airway epithelial cells. Cultures of WD cells were exposed to NECA (an A2b receptor agonist), isoproterenol, bradykinin, or ATP (all at 10^−4M), and Cl-secretory responsiveness was determined.

Series [2] has as its target T1, HA-tagged human P2Y2 receptor (Homo sapiens, UniProt P41231).
T1 construct: expressed in transfected cells; host or cells: A9 cells (retroviral gene transfer)
As to the kind of experiment: Agonist-induced internalization of HA-P2Y2 receptor in A9 cells. In kind it is cell-based. The note with it: ATPγS 10^−4 M, within 45 minutes. From the text:
To test the concept that the P2Y2 receptor is a candidate receptor for targeting based on the ability to bind and internalize an exogenous ligand, we have obtained CHO and A9 cells (both of which are not transducible by AdV) that express the HA-tagged human P2Y2 receptor (HA tag on the extracellular N-terminus) by retroviral gene transfer. HA-P2Y2 receptor expressing A9 cells, but not control cells, stain with fluorescently labeled anti-HA Abs under resting conditions. With agonist [ATPγS (10^−4 M)] exposure, approximately 80% of the receptors are internalized within 45 minutes. The internalization of P2Y2 receptor is mediated via coated pits.

Series [3] deals with T2, human P2Y2-receptor (HA epitope-tag) in 1321N1 human astrocytoma cells (Homo sapiens, UniProt P41231).
T2 construct: expressed in transfected cells; host or cells: 1321N1 human astrocytoma cells
Briefly: Internalization of P2Y2-HA receptor in astrocytoma cells (immunofluorescence, ELISA). In kind it is cell-based. The note with it: 30 min ATPγS exposure. For orientation: ELISA stands for enzyme-linked immunosorbent assay.

For series [4], the target named is T2, human P2Y2-receptor (HA epitope-tag) in 1321N1 human astrocytoma cells. The note with it: ELISA, ATPγS exposures of 1 hr; cited from earlier work.
Another series addresses T3, P2Y2 receptors (Homo sapiens, UniProt P41231).
T3 construct: expressed in transfected cells; host or cells: astrocytoma cells
As to the kind of experiment: Inositol phosphate formation in astrocytoma cells expressing P2Y2 receptors. In kind it is cell-based. Conditions: FIG. 9A. From the text:
FIG. 9A is a graphical representation of a comparison of agonist potency of U2P4 and UTP in astrocytoma cells expressing P2Y2 receptors.

Series [5] in a line: Metabolic stability in cystic fibrosis sputum. The note with it: compared with UTP, FIG. 9B. In kind it is in vitro ADME. From the text: FIG. 9B is a graphical representation of the metabolic stability of U2P4 compared with UTP in cystic fibrosis sputum.
Biologically active analogs of UTP that are more resistant to biological hydrolysis than UTP have been developed for linkage to vectors. The dinucleotide U2P4 has useful properties.

T2 sequence (P41231 whole entry): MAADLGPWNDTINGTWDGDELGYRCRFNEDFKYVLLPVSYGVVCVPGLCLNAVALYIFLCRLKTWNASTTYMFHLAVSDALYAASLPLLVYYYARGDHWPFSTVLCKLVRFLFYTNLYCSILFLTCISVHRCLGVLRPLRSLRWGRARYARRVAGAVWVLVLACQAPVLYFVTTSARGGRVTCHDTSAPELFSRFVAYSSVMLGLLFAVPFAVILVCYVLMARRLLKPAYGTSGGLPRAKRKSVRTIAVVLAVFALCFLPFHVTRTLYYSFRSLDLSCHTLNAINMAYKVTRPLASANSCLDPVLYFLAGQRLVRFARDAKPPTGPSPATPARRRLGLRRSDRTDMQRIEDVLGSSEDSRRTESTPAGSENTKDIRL
T3 sequence (P41231 whole entry): as above
T1 sequence (P41231 whole entry): as above

For `Nc1ncnc2c1ncn2[C@@H]1O[C@H](COP(=O)(O)OP(=O)(O)OP(=O)(O)O)[C@@H](O)[C@H]1O` [ATP], the Cl-secretory responsiveness entry in series [1] is reported as “the greatest response”.
In the case of `Nc1ncnc2c1ncn2[C@@H]1O[C@H](COP(=O)(O)OP(=O)(O)OP(O)(O)=S)[C@@H](O)[C@H]1O` [ATPγS], the receptors internalized result in series [2] is on record as “approximately 80%”. The “plasma membrane immunoreactivity of P2Y2-HA receptor” value in series [3] is reported as “clear loss of immunoreactivity from the plasma membrane”. The “internalization efficiency (loss of receptor sites)” value in series [4] is recorded as 80%.
Regarding `O=c1ccn([C@@H]2O[C@H](COP(=O)([O-])OP(=O)([O-])OP(=O)([O-])OP(=O)([O-])OC[C@H]3O[C@@H](n4ccc(=O)[nH]c4=O)[C@H](O)[C@@H]3O)[C@@H](O)[C@H]2O)c(=O)[nH]1.[Na+].[Na+].[Na+].[Na+]` [Example U2P4], the “agonist potency relative to UTP (inositol phosphate release)” value at P2Y2 receptors was “equipotent with UTP”. Further, the “hydrolysis in cystic fibrosis (CF) sputum” value in series [5] is reported as “resistant to hydrolysis”.
On to `CCNC(=O)[C@H]1O[C@@H](n2cnc3c(N)ncnc32)[C@H](O)[C@@H]1O` [NECA], for which, in series [1], the Cl-secretory responsiveness entry is on record as “a Cl-secretory response was detected”.
In the case of `CC(C)NCC(O)c1ccc(O)c(O)c1` (centres unmarked) [isoproterenol], the Cl-secretory responsiveness entry in series [1] is “a Cl-secretory response was detected”.
